Measured values reported in patent US8338450B2, “Compounds as dipeptidyl peptidase IV (DPP IV) inhibitors” (Lupin Limited, priority 2007, dated 2012).
Structures can show the parent of a compound that is named as a salt.

These compounds were tested against T1, human recombinant DPP-IV (Homo sapiens, UniProt P27487) (assay: Inhibition of human recombinant DPP-IV (Gly-Pro-AMC hydrolysis, fluorometric)). Settings: compound 10 nM; relative to vehicle controls.
T1 construct: purchased R&D Systems, USA (or produced in-house)
T1 sequence (P27487 whole entry): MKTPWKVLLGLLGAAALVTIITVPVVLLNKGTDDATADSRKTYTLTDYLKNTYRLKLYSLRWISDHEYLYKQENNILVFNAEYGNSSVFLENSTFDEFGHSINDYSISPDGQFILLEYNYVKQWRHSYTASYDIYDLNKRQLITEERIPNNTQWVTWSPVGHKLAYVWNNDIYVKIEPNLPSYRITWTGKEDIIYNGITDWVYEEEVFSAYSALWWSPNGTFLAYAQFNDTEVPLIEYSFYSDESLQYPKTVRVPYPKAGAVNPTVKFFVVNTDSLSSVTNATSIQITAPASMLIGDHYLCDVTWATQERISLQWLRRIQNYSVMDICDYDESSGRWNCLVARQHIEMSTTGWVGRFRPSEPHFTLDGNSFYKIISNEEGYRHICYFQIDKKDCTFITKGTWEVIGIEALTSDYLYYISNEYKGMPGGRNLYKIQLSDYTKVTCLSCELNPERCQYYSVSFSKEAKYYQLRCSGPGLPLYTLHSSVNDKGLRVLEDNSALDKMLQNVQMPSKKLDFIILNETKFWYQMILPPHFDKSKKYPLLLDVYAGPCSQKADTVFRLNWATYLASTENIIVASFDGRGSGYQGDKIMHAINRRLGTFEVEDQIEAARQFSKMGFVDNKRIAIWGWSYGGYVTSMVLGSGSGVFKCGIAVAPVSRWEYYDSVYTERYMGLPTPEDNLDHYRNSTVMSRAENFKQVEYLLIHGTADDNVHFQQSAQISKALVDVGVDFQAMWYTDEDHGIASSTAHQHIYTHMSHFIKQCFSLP
Assay type: biochemical
Protocol: Inhibition of Human Recombinant DPP-IV
The proteolytic activity of human recombinant DPP-IV was determined by following the hydrolysis of Gly-Pro-7-amino-4-methylcoumarin (Gly-Pro-AMC) and the fluorometric quantitation of the liberated AMC. Assays were routinely carried out in 96-well flat-bottom black microwell plates. The reaction mixture (100 μl) contained 10 ng of human recombinant DPP-IV enzyme (produced in-house or procured from R&D Systems, USA) in the assay buffer (25 mM Tris-HCl, pH 7.4, 140 mM NaCl, 10 mM KCl and 0.1 mg/ml BSA) and 50 μM Gly-Pro-AMC. After incubation of assay plates at 30° C. for 30 min, the hydrolysis of Gly-Pro-AMC was monitored in a fluorescence microplate reader (Molecular Devices SpectraMax M5), with excitation and emission wavelengths set at 360 nm and 460 nm, respectively.
The inhibition of DPP-IV activity by test compounds was routinely performed by preincubating the enzyme with test compound (10 and 100 nM for primary screening and 8 concentrations from 0.1 to 1000 nM for the dose-response study) or vehicle (0.01% DMSO) for 15 min at 30° C., in a total volume of 90 μl. Test compounds were dissolved in DMSO at a concentration of 10 mM and serially diluted further in assay buffer. The enzyme reaction was initiated by the addition of Gly-Pro-AMC, followed by incubation of assay plates for 30 min at 30° C. and the liberated AMC was measured as described above. A known inhibitor of DPP-IV (positive control) was always included in the assay. Test compounds at various concentrations were always evaluated in duplicate, along with substrate blanks, vehicle controls and positive controls.
The results are expressed as percent inhibition of the enzyme activity relative to vehicle controls. Dose-response studies were conducted for those compounds exerting ≧50% inhibition of activity at 10 nM in primary screening. IC50, defined as the inhibitor concentration which caused a 50% decrease of the activity under assay conditions, was computed using GraphPad Prism software, version 5.0.
The DPP-IV inhibition data (expressed either as IC50 in nanomolar or percent inhibition at a particular compound concentration) is presented in Table 1.
With `N#C[C@@H]1C[C@@H]2C[C@@H]2N1C(=O)[C@@H](N)C1CC2CCC(C1)N2C(=O)NS(=O)(=O)c1ccc(Cl)cc1.O=C(O)C(F)(F)F` (stereo partly drawn) [Compound 61, (1S,3S,5S)-2-{(2S)-2-Amino-2-[8-(4-chlorophenylsulfonylcarbamoyl)-8-aza-bicyclo[3.2.1]oct-3-yl]-exo-ethanoyl}-2-azabicyclo[3.1.0]hexane-3-carbonitrile trifluoroacetic acid salt] the “% inhibition at 10 nM” value was 9% inhibition at 10 nM.
In the case of `N#C[C@@H]1C[C@@H]2C[C@@H]2N1C(=O)[C@@H](N)C1CC2CCC(C1)N2CCC(F)(F)F.O=C(O)C(F)(F)F` (stereo partly drawn) [Compound 47, (1S,3S,5S)-2-{(2S)-2-Amino-2-[8-(3,3,3-trifluoropropyl)-8-aza-bicyclo[3.2.1]oct-3-yl]-exo-ethanoyl}-2-azabicyclo[3.1.0]hexane-3-carbonitrile trifluoroacetic acid salt], the “% inhibition at 10 nM” value is reported as 29% inhibition at 10 nM.
With `N#C[C@@H]1C[C@@H]2C[C@@H]2N1C(=O)[C@@H](N)C1CC2CCC(C1)N2C(=O)C1CCCCC1.O=C(O)C(F)(F)F` (stereo partly drawn) [Compound 58, (1S,3S,5S)-2-{(2S)-2-Amino-2-[8-(cyclohexane-carbonyl)-8-aza-bicyclo[3.2.1]oct-3-yl]-exo-ethanoyl}-2-azabicyclo[3.1.0]hexane-3-carbonitrile trifluoroacetic acid salt] the “% inhibition at 10 nM” value was 31% inhibition at 10 nM.
With `N#C[C@H]1C[C@H]2C[C@H]2N1C(=O)[C@@H](N)C1CC2CCC(C1)N2C(=O)c1cnccn1.O=C(O)C(F)(F)F` (stereo partly drawn) [Compound 37, (1R,3R,5R)-2-{(2S)-2-Amino-2-[8-(pyrazine-2-carbonyl)-8-aza-bicyclo[3.2.1]oct-3-yl]-exo-ethanoyl}-2-azabicyclo[3.1.0]hexane-3-carbonitrile trifluoroacetic acid salt] the “% inhibition at 10 nM” value was 7% inhibition at 10 nM.
`N#C[C@H]1C[C@H]2C[C@H]2N1C(=O)[C@@H](N)C1CC2CCC(C1)N2C(=O)c1ccnc(F)c1.O=C(O)C(F)(F)F` (stereo partly drawn) [Compound 29, (1R,3R,5R)-2-{(2S)-2-Amino-2-[8-(2-fluoropyridine-4-carbonyl)-8-aza-bicyclo[3.2.1]oct-3-yl]-exo-ethanoyl}-2-azabicyclo[3.1.0]hexane-3-carbonitrile trifluoroacetic acid salt] was tested, and the “% inhibition at 10 nM” value was 0% inhibition at 10 nM.
For `N#C[C@@H]1C[C@@H]2C[C@@H]2N1C(=O)[C@@H](N)C1CC2CCC(C1)N2CCOCc1ccccc1.O=C(O)C(F)(F)F` (stereo partly drawn) [Compound 50, (1S,3S,5S)-2-{(2S)-2-Amino-2-[8-(benzyloxy-ethyl)-8-aza-bicyclo[3.2.1]oct-3-yl]-exo-ethanoyl}-2-azabicyclo[3.1.0]hexane-3-carbonitrile trifluoroacetic acid salt], the “% inhibition at 10 nM” value was 21% inhibition at 10 nM.

Same assay, conditions: compound 100 nM; relative to vehicle controls
With `N#C[C@@H]1C[C@@H]2C[C@@H]2N1C(=O)[C@@H](N)C1CC2CCC(C1)N2C(=O)C12CC3CC(CC(C3)C1)C2.O=C(O)C(F)(F)F` (stereo partly drawn) [Compound 43, (1S,3S,5S)-2-{(2S)-2-Amino-2-[8-(adamantane-1-carbonyl)-8-aza-bicyclo[3.2.1]oct-3-yl]-exo-ethanoyl}-2-azabicyclo[3.1.0]hexane-3-carbonitrile trifluoroacetic acid salt] the “% inhibition at 100 nM” value was 49% inhibition at 100 nM.

Same assay, conditions: compound 1000 nM; relative to vehicle controls
With `NC(=O)[C@@H]1CCCN1C(=O)[C@@H](N)C1CC2CCC(C1)N2C(=O)c1ccc(C(F)(F)F)cc1.O=C(O)C(F)(F)F` (stereo partly drawn) [Compound 12, (2S)-1-{(2S)-2-amino-2-[8-(4-trifluoromethyl-benzoyl)-8-aza-bicyclo[3.2.1]-oct-3-yl]-exo-ethanoyl}-pyrrolidin-2-carboxamide trifluoroacetic acid salt] the “% inhibition at 1000 nM” value was 30% inhibition at 1000 nM.

Same assay, conditions: human recombinant DPP-IV, 50 μM Gly-Pro-AMC, 30 min at 30° C.
Compound `N#C[C@@H]1C[C@@H]2C[C@@H]2N1C(=O)[C@@H](N)C1CC2CCC(C1)N2C(=O)c1ccncc1F` (stereo partly drawn) [Compound 41, (1S,3S,5S)-2-{(2S)-2-Amino-2-[8-(3-fluoropyridine-4-carbonyl)-8-aza-bicyclo[3.2.1]oct-3-yl]-exo-ethanoyl}-2-azabicyclo[3.1.0]hexane-3-carbonitrile trifluoroacetic acid salt] has an IC50 of 4.92 nM.
`C#C[C@H]1CC[C@@H](C#N)N1C(=O)[C@@H](N)C1CC2CCC(C1)N2C(=O)c1ccc(C(F)(F)F)cc1` (stereo partly drawn) [Compound 63, (2S,5R)-1-{(2S)-2-Amino-2-[8-(4-trifluoromethyl-benzoyl)-8-aza-bicyclo[3.2.1]oct-3-yl]-exo-ethanoyl}-5-ethynyl-pyrrolidin-2-carbonitrile trifluoro acetic acid salt] was tested, and the IC50 was 15.5 nM.
`N#C[C@@H]1C[C@@H]2C[C@@H]2N1C(=O)[C@@H](N)C1CC2CCC(C1)N2C(=O)c1cc(F)c(F)cc1F` (stereo partly drawn) [Compound 23, (1S,3S,5S)-2-{(2S)-2-Amino-2-[8-(2,4,5-trifluorobenzoyl)-8-aza-bicyclo[3.2.1]oct-3-yl]-exo-ethanoyl}-2-azabicyclo[3.1.0]hexane-3-carbonitrile trifluoroacetic acid salt] was tested, and the IC50 was 9.75 nM.
With `N#C[C@@H]1C[C@@H]2C[C@@H]2N1C(=O)[C@@H](N)C1CC2CCC(C1)N2C(=O)c1cccnc1F` (stereo partly drawn) [Compound 32, (1S,3S,5S)-2-{(2S)-2-Amino-2-[8-(2-fluoropyridine-3-carbonyl)-8-aza-bicyclo[3.2.1]oct-3-yl]-exo-ethanoyl}-2-azabicyclo[3.1.0]hexane-3-carbonitrile trifluoroacetic acid salt] the IC50 was 6.84 nM.
Work on `CS(=O)(=O)N1C2CCC1CC([C@H](N)C(=O)N1[C@H](C#N)C[C@@H]3C[C@@H]31)C2` (stereo partly drawn) [Compound 56, (1S,3S,5S)-2-{(2S)-2-Amino-2-[8-(methanesulfonyl)-8-aza-bicyclo[3.2.1]oct-3-yl]-exo-ethanoyl}-2-azabicyclo[3.1.0]hexane-3-carbonitrile trifluoroacetic acid salt] yielded an IC50 of 4.14 nM.
`N#Cc1ccc(N2C3CCC2CC([C@H](N)C(=O)N2[C@H](C#N)C[C@@H]4C[C@@H]42)C3)nc1` (stereo partly drawn) [Compound 51, (1S,3S,5S)-2-{(2S)-2-Amino-2-[8-(5-cyanopyridine-2-yl)-8-aza-bicyclo[3.2.1]oct-3-yl]-exo-ethanoyl}-2-azabicyclo[3.1.0]hexane-3-carbonitrile trifluoroacetic acid salt] gave an IC50 of 9.6 nM.
For `C#C[C@H]1CC[C@@H](C#N)N1C(=O)[C@@H](N)C1CC2CCC(C1)N2C(=O)c1ccncc1F` (stereo partly drawn) [Compound 65, (2S,5R)-1-{(2S)-2-Amino-2-[8-(3-fluoropyridin-4-carbonyl)-8-aza-bicyclo[3.2.1]oct-3-yl]-exo-ethanoyl}-5-ethynyl-pyrrolidin-2-carbonitrile trifluoroacetic acid salt], the IC50 was 7.1 nM.
`N#C[C@@H]1C[C@@H]2C[C@@H]2N1C(=O)[C@@H](N)C1CC2CCC(C1)N2C(=O)c1ccccn1` (stereo partly drawn) [Compound 39, (1S,3S,5S)-2-{(2S)-2-Amino-2-[8-(pyridine-2-carbonyl)-8-aza-bicyclo[3.2.1]oct-3-yl]-exo-ethanoyl}-2-azabicyclo[3.1.0]hexane-3-carbonitrile trifluoroacetic acid salt] showed an IC50 of 11.7 nM.
Compound `N#Cc1ccc(C(=O)N2C3CCC2CC([C@H](N)C(=O)N2[C@H](C#N)C[C@@H]4C[C@@H]42)C3)cc1` (stereo partly drawn) [Compound 24, (1S,3S,5S)-2-{(2S)-2-Amino-2-[8-(4-cyanobenzoyl)-8-aza-bicyclo[3.2.1]oct-3-yl]-exo-ethanoyl}-2-azabicyclo[3.1.0]hexane-3-carbonitrile trifluoroacetic acid salt] has an IC50 of 3.52 nM.
Compound `N#C[C@@H]1CCCN1C(=O)[C@@H](N)C1CC2CCC(C1)N2C(=O)c1cc(F)ccc1F` (stereo partly drawn) [Compound 6, (2S)-1-{(2S)-2-Amino-2-[8-(2,5-difluorobenzoyl)-8-aza-bicyclo[3.2.1]oct-3-yl]-exo-ethanoyl}-pyrrolidin-2-carbonitrile trifluoroacetic acid salt] has an IC50 of 2.3 nM.
`N#C[C@@H]1CCCN1C(=O)[C@@H](N)C1CC2CCC(C1)N2C(=O)Nc1ccc(C(F)(F)F)cc1` (stereo partly drawn) [Compound 22, (2S)-1-{(2S)-2-Amino-2-[8-(4-trifluoromethylphenylcarbamoyl)-8-aza-bicyclo[3.2.1]oct-3-yl]exo-ethanoyl}-pyrrolidin-2-carbonitrile trifluoroacetic acid salt] gave an IC50 of 2.83 nM.
`N#C[C@@H]1C[C@@H]2C[C@@H]2N1C(=O)[C@@H](N)C1CC2CCC(C1)N2S(=O)(=O)c1cc(F)cc(F)c1` (stereo partly drawn) [Compound 42, (1S,3S,5S)-2-{(2S)-2-Amino-2-[8-(3,5-difluorobenzenesulfonyl)-8-aza-bicyclo[3.2.1]oct-3-yl]-exo-ethanoyl}-2-azabicyclo[3.1.0]hexane-3-carbonitrile trifluoroacetic acid salt] was tested, and the IC50 was 9 nM.
